These results are taken from US7220751B2, “Quinazoline derivatives and drugs” (Nippon Shinyaku Co., Ltd., priority 2001, dated 2007).

For assay [1], the target named is T1, human μ receptor (Homo sapiens, UniProt P35372).
T1 construct: purchased Receptor Biology, Inc
Description: μ receptor binding test ([3H]-diprenorphine). To be noted: human μ receptor expressing cell membrane preparation; 0.13 nM [3H]-diprenorphine; 25° C., 90 minutes; read-out: μ preceptor Ki. The protocol: A nociceptin receptor is a member of an opioid receptor family. An inventive compound was examined for its binding capacity to a μ receptor which is also a member of an opioid receptor family and which is involved in an analgesic effect and a dependency, and compared with the binding capacity to the nociceptin receptor.
A human μ receptor expressing cell membrane preparation (Receptor Biology, Inc) was adjusted at the protein concentration of 8.5 μg/ml using a Tris-buffer solution [50 mM Tris-HCl (pH 7.8), 5 mM MgCl2, 1 mM EGTA, 0.1% BSA]. The solution incubated with [^3H]-diprenorphine (diluted at the final concentration of 0.13 nM using Tris-buffer) and a test compound at 25° C. for 90 minutes. The membrane was recovered using a cell harvester onto a GF/B filter which had previously been treated with 0.3% PEI, and then washed further 4 times with a washing solution [50 mM Tris-HCl (pH 7.8), 4° C.]. The filter was transferred into a counting vial. Adequate amount of scintillator was added and the radioactivity was measured using a liquid scintillation counter. A non-specific binding was regarded as a binding of [^3H]-diprenorphine in the presence of 100 μM naloxone, and a specific binding was regarded as the difference between the total binding and the non-specific binding. Based on the % binding inhibition in the presence of the test compound, an IC50 value was determined, and used together with the Kd value of [^3H]-diprenorphine for calculating the Ki value of the test compound.

Assay [2] deals with T2, human nociceptin receptor (Homo sapiens, UniProt P41146).
T2 construct: expressed in transfected cells
T2 sequence (P41146 whole entry): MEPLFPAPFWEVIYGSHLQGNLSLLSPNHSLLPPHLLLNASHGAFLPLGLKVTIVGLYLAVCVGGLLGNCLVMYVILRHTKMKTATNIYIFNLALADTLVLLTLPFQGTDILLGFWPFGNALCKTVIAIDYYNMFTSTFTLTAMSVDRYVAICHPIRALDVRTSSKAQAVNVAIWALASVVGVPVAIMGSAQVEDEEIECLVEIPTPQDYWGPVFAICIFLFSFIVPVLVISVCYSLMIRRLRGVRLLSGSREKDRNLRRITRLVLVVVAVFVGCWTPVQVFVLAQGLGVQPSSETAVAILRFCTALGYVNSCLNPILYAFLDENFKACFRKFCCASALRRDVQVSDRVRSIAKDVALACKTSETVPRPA
The assay can be described thus: Nociceptin receptor binding test ([3H]-nociceptin). To be noted: membranes of human nociceptin receptor expressing cell; 0.08 nM [3H]-nociceptin; 25° C., 60 minutes. The protocol:
Nociceptin Receptor Binding Test
A suspension of cell membrane obtained from a human nociceptin receptor expressing cell was adjusted at a protein concentration of 5 to 10 μg/ml using a Tris-buffer solution [50 mM Tris-HCl (pH 7.8), 5 mM MgCl2, 1 mM EGTA, 0.1% BSA]. The solution was incubated with [^3H]-nociceptin (diluted at the final concentration of 0.08 nM using Tris-buffer) and a test compound at 25° C. for 60 minutes. The membrane was recovered using a cell harvester onto a glass fiber (GF) filter GF/B which had previously been treated with 0.3% polyethyleneimine (PEI), and then washed further 4 times with a washing solution[50 mM Tris-HCl (pH 7.8), 4° C.]. The filter was transferred into a counteing vial. Adequate amount of scintillator was added to the vial and the radioactivity was measured using a liquid scintillation counter. A non-specific binding was regarded as a binding of [^3H]-nociceptin in the presence of 10 μM nociceptin, and a specific binding was regarded as the difference between the total binding and the non-specific binding. Based on the % binding inhibition in the presence of the test compound, an IC50 value was determined, and used together with the Kd value of [^3H]-nociceptin for calculating the Ki value of the test compound.

Assay [3] can be described thus: Mouse formalin test. The class given is in vivo. To be noted: male ddy mouse, 30 mg/kg subcutaneously 15 min before 1% formalin, mean. The protocol: A male ddy strain mouse (4 to 5 weeks old) was kept at a temperature of 21 to 25° C. and a humidity of 45 to 65% in a breeding room under the conditions of a constant lighting cycle (light: 12 hours, dark: 12 hours) while allowing the animal to access a feed and water ad libitum, whereby acclimatizing the animal over a period of 1 week or longer. Each 6 to 7 animals were assigned to each group.
After the mouse was acclimatized to an observation cage sufficiently, it was treated with a test compound, and then after 15 minutes 20 μl of 1% formalin solution was given subcutaneously to a hind limb. The test compound was dissolved in a saline, and immediately given to the mouse subcutaneously at the dose of 0.1 ml per 10 g body weight using a 27G needle. A control group received the physiological saline. The animals were returned to their observation cages, and examined for the duration of the aversive responses such as licking or biting the posterior limb using a stopwatch over a period of 30 minutes.
The significance of the difference was analyzed by the one-way layout analysis of variance between the control group and a treatment group followed by Dunnett's multiple comparison.

Where [4] appears, read: 0~10 min after formalin treatment (phase 1).
Setting [5] is: 10~30 min after formalin treatment (phase 2).

SMILES strings stand for the structures. Counter-ions that a name gives are not always drawn. Marks after values point to notes of the source that are not given here.

T1 sequence (P35372 whole entry): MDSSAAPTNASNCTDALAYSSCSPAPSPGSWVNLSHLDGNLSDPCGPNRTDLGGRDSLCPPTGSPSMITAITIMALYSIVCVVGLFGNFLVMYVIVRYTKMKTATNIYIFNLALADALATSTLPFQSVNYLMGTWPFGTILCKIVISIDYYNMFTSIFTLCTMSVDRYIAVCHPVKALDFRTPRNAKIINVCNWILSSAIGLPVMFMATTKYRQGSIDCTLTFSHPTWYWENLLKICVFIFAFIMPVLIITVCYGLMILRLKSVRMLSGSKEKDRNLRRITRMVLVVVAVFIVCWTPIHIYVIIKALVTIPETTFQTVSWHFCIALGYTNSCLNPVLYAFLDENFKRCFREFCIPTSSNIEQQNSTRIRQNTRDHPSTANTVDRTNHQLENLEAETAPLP

Broadly, the Ki is a dissociation constant, usually derived from enzyme kinetics or from competition with a known ligand. In the case of `Cc1ccc2nc(C=Cc3ccc(Cl)cc3)nc(N[C@H]3CC[C@@H](N)CC3)c2c1` [Example 22, cis-4-[2-(4-chlorostyryl)-6-methylquinazolin-4-yl]aminocyclohexylamine dihydrochloride], the Ki is 313 nM in assay [1] and 29 nM in assay [2].
`Cc1ccc2nc(C=Cc3ccccn3)nc(N[C@@H]3CC[C@H](N)C[C@@H]3C)c2c1` [Example 57, (1R, 2S, 4S)-4-amino-2-methyl-N-{6-methyl-2-[2-(2-pyridyl)ethenyl]quinazolin-4-yl}cyclohexylamine Trihydrochloride]: the Ki in assay [1] was 284 nM; in assay [2], 42 nM.
Take `Cc1ccc2nc(C=Cc3cccc(C)n3)nc(NC3CCC(N)CC3C)c2c1.Cl.Cl.Cl` (stereo not drawn) [Example 52, cis-4-amino-cis-2-methyl-N-{6-methyl-2-[2-(6-methyl-2-pyridyl)ethenyl]quinazolin-4-yl}cyclohexylamine Trihydrochloride]: the “Duration of the abersive response” value is given as 79.4** sec in assay [3] (setting [4]) and 77.0** sec in assay [3] (setting [5]).
Take `COc1ccc2nc(C=Cc3ccccn3)nc(N[C@H]3CC[C@@H](N)CC3)c2c1` [Example 44, cis-4-{6-methoxy-2-[2-(2-pyridyl)ethenyl]quinazolin-4-yl}aminocyclohexylamine Trihydrochloride]: the Ki in assay [1] was found to be 492 nM; in assay [2], 23 nM.
As to `COc1ccc2nc(C=Cc3ccc(Cl)cc3)nc(N[C@H]3CCCC[C@H]3N)c2c1` (relative stereo) [Example 25, cis-2-[2-(4-chlorostyryl)-6-methoxyquinazolin-4-yl]aminocyclohexylamine dihydrochloride], the Ki came out at 204 nM in assay [1] and 110 nM in assay [2].
Consider `Cc1ccc2nc(C=Cc3ccccn3)nc(N[C@H]3CC[C@@H](N)CC3)c2c1.Cl.Cl.Cl` [Example 40, cis-4-{6-methyl-2-[2-(2-pyridyl)ethenyl]quinazolin-4-yl}aminocyclohexylamine Trihydrochloride], for which the “Duration of the abersive response” value is recorded as 64.5** sec in assay [3] (setting [4]) and 77.6* sec in assay [3] (setting [5]). The Ki is 288 nM in assay [1] and 18 nM in assay [2].
Turning to `Cc1ccc2nc(C=Cc3ccccn3)nc(N[C@H]3CC[C@@H](N)C[C@H]3C)c2c1` [Example 58, (1S, 2R, 4R)-4-amino-2-methyl-N-{6-methyl-2-[2-(2-pyridyl)ethenyl]quinazolin-4-yl}cyclohexylamine Trihydrochloride], the Ki is 234 nM in assay [1] and 2 nM in assay [2].
For `COc1ccc2nc(C=Cc3ccccn3)nc(N[C@@H]3CC[C@H](N)C[C@@H]3C)c2c1` (relative stereo) [Example 51, cis-4-amino-cis-2-methyl-N-{6-methoxy-2-[2-(2-pyridyl)ethenyl]quinazolin-4-yl}cyclohexylamine Trihydrochloride], the inhibitory constant (Ki) in assay [1] was 206 nM; in assay [2] it was 6 nM.
For `Cc1ccc2nc(C=Cc3ccccn3)nc(N[C@@H]3CC[C@H](N)C[C@@H]3C)c2c1` (relative stereo) [Example 1, cis-4-amino-cis-2-methyl-N-{6-methyl-2-[2-(2-pyridyl)ethenyl]quinazolin-4-yl}cyclohexylamine Trihydrochloride], the entries for the “Duration of the abersive response” value in assay [3] (setting [4]) and in assay [3] (setting [5]) were 47.5** sec and 74.5* sec, respectively. The Ki in assay [1] came out at 207 nM; in assay [2], 4 nM.
